Results from ChEMBL document CHEMBL1151757, “Synthesis, radiosynthesis, and biological evaluation of fluorine-18-labeled 2beta-carbo(fluoroalkoxy)-3beta-(3'-((Z)-2-haloethenyl)phenyl)nortropanes: candidate radioligands for in vivo imaging of the serotonin transporter with positron emission tomography” (J Med Chem, 2008).

system: not listed separately; assay: Ratio of drug uptake in pons to cerebellum in anesthetized cynomolgus monkey after 1.5 mins postinjection; type: ADME, organism-based, Macaca fascicularis; conditions: in vivo, 0.025 h

| SMILES | Ratio |
| --- | --- |
| O=C(OCCC[18F])C1C2CCC(CC1c1cccc(/C=C\Br)c1)N2 (stereo not drawn) | 0.8 |

system: not listed separately; assay: Ratio of drug uptake in frontal lobe to cerebellum in anesthetized cynomolgus monkey after 35 mins postinjection; type: ADME, organism-based, Macaca fascicularis; conditions: in vivo

| SMILES | Ratio |
| --- | --- |
| O=C(OCCC[18F])C1C2CCC(CC1c1cccc(/C=C\Br)c1)N2 (stereo not drawn) | 0.7 |

system: Thalamus; assay: Drug uptake in anesthetized cynomolgus monkey brain thalamus after 155 mins postinjection; type: ADME, organism-based, Macaca fascicularis; set-up: unit not given here; conditions: in vivo

| SMILES | Drug uptake |
| --- | --- |
| O=C(OCCC[18F])C1C2CCC(CC1c1cccc(/C=C\Br)c1)N2 (stereo not drawn) | 4.27 |

system: not listed separately; assay: Ratio of drug uptake in thalamus to cerebellum in anesthetized cynomolgus monkey after 27.5 mins postinjection; type: ADME, organism-based, Macaca fascicularis; conditions: in vivo

| SMILES | Ratio |
| --- | --- |
| O=C(OCCC[18F])C1C2CCC(CC1c1cccc(/C=C\Br)c1)N2 (stereo not drawn) | 0.9 |

system: not listed separately; assay: Drug uptake in anesthetized cynomolgus monkey brain cerebellum after 65 mins postinjection; type: ADME, organism-based, Macaca fascicularis; conditions: in vivo

| SMILES | Drug uptake |
| --- | --- |
| O=C(OCCC[18F])C1C2CCC(CC1c1cccc(/C=C\Br)c1)N2 (stereo not drawn) | 4.29 |

system: Pons; assay: Drug uptake in anesthetized cynomolgus monkey brain pons after 75 mins postinjection; type: ADME, organism-based, Macaca fascicularis; conditions: in vivo, 1.25 h

| SMILES | Drug uptake |
| --- | --- |
| O=C(OCCC[18F])C1C2CCC(CC1c1cccc(/C=C\Br)c1)N2 (stereo not drawn) | 4.67 |

system: Medulla; assay: Drug uptake in anesthetized cynomolgus monkey brain medulla after 105 mins postinjection; type: ADME, organism-based, Macaca fascicularis; conditions: in vivo, 1.75 h

| SMILES | Drug uptake |
| --- | --- |
| O=C(OCCC[18F])C1C2CCC(CC1c1cccc(/C=C\Br)c1)N2 (stereo not drawn) | 5.19 |

system: not listed separately; assay: Drug uptake in anesthetized cynomolgus monkey brain cerebellum after 9.5 mins postinjection; type: ADME, organism-based, Macaca fascicularis; conditions: in vivo

| SMILES | Drug uptake |
| --- | --- |
| O=C(OCCC[18F])C1C2CCC(CC1c1cccc(/C=C\Br)c1)N2 (stereo not drawn) | 5.92 |

system: not listed separately; assay: Ratio of drug uptake in occipital lobe to cerebellum in anesthetized cynomolgus monkey after 175 mins postinjection; type: ADME, organism-based, Macaca fascicularis; conditions: in vivo

| SMILES | Ratio |
| --- | --- |
| O=C(OCCC[18F])C1C2CCC(CC1c1cccc(/C=C\Br)c1)N2 (stereo not drawn) | 1.3 |

system: not listed separately; assay: Ratio of drug uptake in putamen to cerebellum in anesthetized cynomolgus monkey after 35 mins postinjection; type: ADME, organism-based, Macaca fascicularis; conditions: in vivo

| SMILES | Ratio |
| --- | --- |
| O=C(OCCC[18F])C1C2CCC(CC1c1cccc(/C=C\Br)c1)N2 (stereo not drawn) | 1.1 |

system: Thalamus; assay: Drug uptake in anesthetized cynomolgus monkey brain thalamus after 22.5 mins postinjection; type: ADME, organism-based, Macaca fascicularis; set-up: unit not given here; conditions: in vivo, 0.375 h

| SMILES | Drug uptake |
| --- | --- |
| O=C(OCCC[18F])C1C2CCC(CC1c1cccc(/C=C\Br)c1)N2 (stereo not drawn) | 5.02 |

system: not listed separately; assay: Drug uptake in anesthetized cynomolgus monkey brain cerebellum after 35 mins postinjection; type: ADME, organism-based, Macaca fascicularis; conditions: in vivo

| SMILES | Drug uptake |
| --- | --- |
| O=C(OCCC[18F])C1C2CCC(CC1c1cccc(/C=C\Br)c1)N2 (stereo not drawn) | 5.43 |

system: not listed separately; assay: Ratio of drug uptake in pons to cerebellum in anesthetized cynomolgus monkey after 225 mins postinjection; type: ADME, organism-based, Macaca fascicularis; conditions: in vivo, 3.75 h

| SMILES | Ratio |
| --- | --- |
| O=C(OCCC[18F])C1C2CCC(CC1c1cccc(/C=C\Br)c1)N2 (stereo not drawn) | 1.6 |

system: Thalamus; assay: Drug uptake in anesthetized cynomolgus monkey brain thalamus after 95 mins postinjection; type: ADME, organism-based, Macaca fascicularis; set-up: unit not given here; conditions: in vivo

| SMILES | Drug uptake |
| --- | --- |
| O=C(OCCC[18F])C1C2CCC(CC1c1cccc(/C=C\Br)c1)N2 (stereo not drawn) | 5.16 |

system: not listed separately; assay: Ratio of drug uptake in thalamus to cerebellum in anesthetized cynomolgus monkey after 9.5 mins postinjection; type: ADME, organism-based, Macaca fascicularis; conditions: in vivo

| SMILES | Ratio |
| --- | --- |
| O=C(OCCC[18F])C1C2CCC(CC1c1cccc(/C=C\Br)c1)N2 (stereo not drawn) | 0.7 |

system: Caudate; assay: Drug uptake in anesthetized cynomolgus monkey brain caudate after 65 mins postinjection; type: ADME, organism-based, Macaca fascicularis, Caudate nucleus; conditions: in vivo

| SMILES | Drug uptake |
| --- | --- |
| O=C(OCCC[18F])C1C2CCC(CC1c1cccc(/C=C\Br)c1)N2 (stereo not drawn) | 5.22 |

system: Midbrain; assay: Drug uptake in anesthetized cynomolgus monkey brain midbrain after 27.5 mins postinjection; type: ADME, organism-based, Macaca fascicularis; set-up: unit not given here; conditions: in vivo

| SMILES | Drug uptake |
| --- | --- |
| O=C(OCCC[18F])C1C2CCC(CC1c1cccc(/C=C\Br)c1)N2 (stereo not drawn) | 6.06 |

system: not listed separately; assay: Ratio of drug uptake in occipital lobe to cerebellum in anesthetized cynomolgus monkey after 18.5 mins postinjection; type: ADME, organism-based, Macaca fascicularis; conditions: in vivo

| SMILES | Ratio |
| --- | --- |
| O=C(OCCC[18F])C1C2CCC(CC1c1cccc(/C=C\Br)c1)N2 (stereo not drawn) | 0.7 |

system: Midbrain; assay: Drug uptake in anesthetized cynomolgus monkey brain midbrain after 155 mins postinjection; type: ADME, organism-based, Macaca fascicularis; conditions: in vivo

| SMILES | Drug uptake |
| --- | --- |
| O=C(OCCC[18F])C1C2CCC(CC1c1cccc(/C=C\Br)c1)N2 (stereo not drawn) | 5.23 |

system: Thalamus; assay: Drug uptake in anesthetized cynomolgus monkey brain thalamus after 18.5 mins postinjection; type: ADME, organism-based, Macaca fascicularis; set-up: unit not given here; conditions: in vivo

| SMILES | Drug uptake |
| --- | --- |
| O=C(OCCC[18F])C1C2CCC(CC1c1cccc(/C=C\Br)c1)N2 (stereo not drawn) | 4.77 |

system: Thalamus; assay: Drug uptake in anesthetized cynomolgus monkey brain thalamus after 135 mins postinjection; type: ADME, organism-based, Macaca fascicularis; set-up: unit not given here; conditions: in vivo, 2.25 h

| SMILES | Drug uptake |
| --- | --- |
| O=C(OCCC[18F])C1C2CCC(CC1c1cccc(/C=C\Br)c1)N2 (stereo not drawn) | 4.58 |

system: not listed separately; assay: Ratio of drug uptake in midbrain to cerebellum in anesthetized cynomolgus monkey after 2.5 mins postinjection; type: ADME, organism-based, Macaca fascicularis; conditions: in vivo

| SMILES | Ratio |
| --- | --- |
| O=C(OCCC[18F])C1C2CCC(CC1c1cccc(/C=C\Br)c1)N2 (stereo not drawn) | 1 |

system: Putamen; assay: Drug uptake in anesthetized cynomolgus monkey brain putamen after 55 mins postinjection; type: ADME, organism-based, Macaca fascicularis; set-up: unit not given here; conditions: in vivo

| SMILES | Drug uptake |
| --- | --- |
| O=C(OCCC[18F])C1C2CCC(CC1c1cccc(/C=C\Br)c1)N2 (stereo not drawn) | 5.97 |

system: not listed separately; assay: Drug uptake in anesthetized cynomolgus monkey brain frontal lobe after 155 mins postinjection; type: ADME, organism-based, Macaca fascicularis; conditions: in vivo

| SMILES | Drug uptake |
| --- | --- |
| O=C(OCCC[18F])C1C2CCC(CC1c1cccc(/C=C\Br)c1)N2 (stereo not drawn) | 2.65 |

system: not listed separately; assay: Ratio of drug uptake in caudate to cerebellum in anesthetized cynomolgus monkey after 95 mins postinjection; type: ADME, organism-based, Macaca fascicularis; conditions: in vivo

| SMILES | Ratio |
| --- | --- |
| O=C(OCCC[18F])C1C2CCC(CC1c1cccc(/C=C\Br)c1)N2 (stereo not drawn) | 1.3 |

system: not listed separately; assay: Ratio of drug uptake in putamen to cerebellum in anesthetized cynomolgus monkey after 9.5 mins postinjection; type: ADME, organism-based, Macaca fascicularis; conditions: in vivo

| SMILES | Ratio |
| --- | --- |
| O=C(OCCC[18F])C1C2CCC(CC1c1cccc(/C=C\Br)c1)N2 (stereo not drawn) | 0.9 |

system: not listed separately; assay: Drug uptake in anesthetized cynomolgus monkey brain occipital lobe after 22.5 mins postinjection; type: ADME, organism-based, Macaca fascicularis; conditions: in vivo, 0.375 h

| SMILES | Drug uptake |
| --- | --- |
| O=C(OCCC[18F])C1C2CCC(CC1c1cccc(/C=C\Br)c1)N2 (stereo not drawn) | 4.5 |

system: not listed separately; assay: Ratio of drug uptake in medulla to cerebellum in anesthetized cynomolgus monkey after 165 mins postinjection; type: ADME, organism-based, Macaca fascicularis; conditions: in vivo, 2.75 h

| SMILES | Ratio |
| --- | --- |
| O=C(OCCC[18F])C1C2CCC(CC1c1cccc(/C=C\Br)c1)N2 (stereo not drawn) | 1.7 |
